Legend:
[1] = system: C. elegans CB211 lev-1(e211) IV.; experiment: Chitinase assay (reproductive capacity); format: in vivo; conditions: Caenorhabditis elegans; levamisole-resistant strain
[2] = system: C. elegans CB3474 ben-1(e1880) III.; experiment: Chitinase assay (reproductive capacity); format: in vivo; conditions: Caenorhabditis elegans; mebendazole-resistant strain
[3] = system: C. elegans ZZ15 lev-8(x15) X.; experiment: Chitinase assay (reproductive capacity); format: in vivo; conditions: Caenorhabditis elegans; levamisole-resistant strain
[4] = system: Heterodera schachtii second-stage juveniles (J2); experiment: Motility on WMicrotracker ONE; format: in vivo
Summary of the method: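 Second-stage juveniles of H. schachtii, reared on in vitro mustard roots on modified KNOP medium, were exposed to compounds in microtiter wells. Motility was scored as activity counts, i.e. interruptions of infrared microbeams passing through each well.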

[5] = system: Arabidopsis thaliana Col-0; experiment: Germination rate and phytotoxicity; format: in vivo; conditions: for average fraction of germinated seeds: 5 DPS; for main root length / plant weight: 10 DPS
Summary of the method: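 Sterilized Col-0 seeds sown on 1/2 MS with compounds at 5, 10, 50 and 100 μM in 0.3% DMSO (DMSO mock), grown under 16 h light/8 h dark at 22 °C/20 °C. Germination rate scored at day 5; primary root length and seedling weight after further 5 days.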

C. elegans = experiment: DESI-MS detection of compound in nematodes; parameters: species or system Caenorhabditis elegans
Protocol: (§1) For in situ visualization of selected compounds, desorption electrospray ionization mass spectrometry imaging (DESI-MSI) was performed by using a Synapt G2-Si MS instrument coupled to a 2D-DESI source (Waters). The spray solvent (95% MeOH with 0.1% ammonia) was delivered at 2 μL/min and nebulized with […] ultrapure nitrogen on sample slides. The DESI source was optimized as follows: tip-to-surface distance: 1 mm; tip-to-inlet distance: 5 mm; incidence angle: 55°; collection angle: 10°; capillary voltage: 4 kV; cone voltage: […]; mass range: 100–600, with 16 000–17 000 full width at half-maximum (fwhm) mass resolution. Data were acquired in the negative mode using MassLynx software (v4.1, Waters, Milford, MA). Spectra, with a spatial resolution of 30 μm, were acquired every second. All acquired spectra were then recalibrated with the exact mass of the standard compounds and normalized based on root mean square (RMS) intensities. […] DESI-MS/MS was performed on the same sampling area with a 20 eV collision energy scanning of nematodes, and the acquired MS/MS spectra were summarized for the fragmentation ion assignment, and the correct molecular formulas were first calculated using MassLynx software (v4.1) and then identified by their masses acquired from the standard solution. […]

H. schachtii = experiment: DESI-MS detection of compound in nematodes; parameters: species or system Heterodera schachtii
Protocol: as §1

[6] = system: H. schachtii second-stage juveniles (J2); experiment: Nematicidal assay with NaOH agitation; format: in vivo, Heterodera schachtii; conditions: 50 µM; 48 h
Excerpt: To assess the nematicidal effect of compounds on H. schachtii second-stage juveniles (J2), approximately 50 J2 in sterile double-distilled water were transferred into each well of a flat-bottom 96-well plate and exposed to the test compounds or vehicle alone (DMSO 0.2%).

[7] = system: C. elegans wild-type and MCII mutants; experiment: Recovery of pretreated worms on WMicrotracker ONE; format: in vivo, Caenorhabditis elegans; conditions: 5 or 10 μM for 72 h, then wash-out and recovery
Protocol: Briefly, for evaluation of the acute effect of the compounds, age-synchronized young adults of each strain, kept in S complete medium supplemented with E. coli OP50 (3 mg/mL, fresh weight), were transferred onto microtiter plates (96-well, U bottom), and their initial motility was measured for 30 min. […] Afterward, the compounds were washed away, and worms, supplemented with fresh liquid media and food, were distributed onto 96-well plates and allowed to recover. Their activity was measured using WMicrotracker ONE at the indicated time points.
C. elegans L1 larvae were exposed to 5 or 10 μM of the compounds for 72 h, after which the compounds were washed away, and the recovery of the nematodes was evaluated using WMicrotracker.

[8] = 10 µM group, initial (prior to the treatment)
[9] = 50 µM group, initial (prior to the treatment)
[10] = 100 µM group, initial (prior to the treatment)

Row | SMILES | IC50 [1] [µM] | IC50 [2] [µM] | IC50 [3] [µM] | average activity counts [4, 8] | average activity counts ([4]; 10 µM, 48 h) | average activity counts ([4]; 10 µM, 72 h) | average activity counts [4, 9] | average activity counts ([4]; 50 µM, 48 h) | average activity counts ([4]; 50 µM, 72 h) | average activity counts [4, 10] | average activity counts ([4]; 100 µM, 48 h) | average activity counts ([4]; 100 µM, 72 h) | average fraction of germinated seeds ([5]; 5 µM) | main root length ([5]; 5 µM) [mm] | plant weight ([5]; 5 µM) [mg] | average fraction of germinated seeds ([5]; 10 µM) | main root length ([5]; 10 µM) [mm] | plant weight ([5]; 10 µM) [mg] | average fraction of germinated seeds ([5]; 50 µM) | main root length ([5]; 50 µM) [mm] | further results
1 | CCCOc1ccc(-c2ccc3[nH]ccc3c2)cc1 [i-13] | 8.8 ± 1.21 | 8.28 ± 0.99 | 7.63 ± 0.91 | 166 | 159 | 141 | 192 | 183 | 163 | 192 | 144 | 150 | 0.98 | 40.24 | 37.8 | 0.93 | 39.42 | 36.95 | 0.91 | 36.26 | plant weight ([5]; 50 µM): 26.29 mg; DESI-MS signal of the compound in nematodes (C. elegans): able to detect signals; DESI-MS signal of the compound in nematodes (H. schachtii): able to detect signals
2 | FC(F)(F)Oc1ccc(-c2ccc3[nH]ccc3c2)cc1 [i-21] | 10.1 ± 0.39 | 9.01 ± 0.78 | 10.6 ± 0.48 | 175 | 170 | 146 | 177 | 142 | 102 | 187 | 150 | 104 | 0.98 | 41.56 | 34.37 | 1.00 | 42.21 | 36.56 | 1.00 | 35.82 | plant weight ([5]; 50 µM): 24.65 mg; average fraction of germinated seeds ([5]; 100 µM): 0.96; main root length ([5]; 100 µM): 30.90 mm; plant weight ([5]; 100 µM): 21.97 mg
3 | CCCOc1cccc(-c2ccc3[nH]ccc3c2)c1 [i-12] | 8.69 ± 1.26 | 8.32 ± 0.74 | 8.03 ± 1.13 | 192 | 200 | 158 | 176 | 195 | 136 | 195 | 166 | 177 | 0.96 | 37.25 | 32.51 | 0.93 | 38.66 | 34.91 | 0.93 | 35.82 | plant weight ([5]; 50 µM): 27.55 mg
4 | Fc1ccc(-c2ccc3[nH]ccc3c2)cc1 [i-20] | 9.02 ± 0.75 | 9.97 ± 1.06 | 11 ± 0.51 | 165 | 169 | 176 | 174 | 81 | 27 | 180 | 4 | 5 | 0.96 | 39.53 | 30.62 | 0.91 | 34.00 | 27.14 | 0.96 | 31.49 | decrease in mean activity counts ([4]; 100 µM, 72 h): 97%; nematicidal effect after NaOH addition [6]: immobilize worms rather than directly kill them; plant weight ([5]; 50 µM): 24.67 mg; average fraction of germinated seeds ([5]; 100 µM): 0.95; main root length ([5]; 100 µM): 25.82 mm; plant weight ([5]; 100 µM): 16.94 mg
5 | Clc1ccc(-c2ccc3[nH]ccc3c2)cc1 [i-19] | 6.8 ± 1.95 | 6.61 ± 0.85 | 5.92 ± 0.39 | 190 | 179 | 192 | 183 | 90 | 18 | 195 | 121 | 30 | 0.93 | 38.83 | 32.28 | 0.96 | 37.74 | 30.72 | 0.97 | 33.27 | decrease in mean activity counts ([4]; 100 µM, 72 h): 85%; nematicidal effect after NaOH addition [6]: immobilize worms rather than directly kill them; plant weight ([5]; 50 µM): 24.85 mg; average fraction of germinated seeds ([5]; 100 µM): 0.93; main root length ([5]; 100 µM): 19.96 mm; plant weight ([5]; 100 µM): 15.22 mg; resistance of MCII mutants compared to wild-type [7]: increased resistance of the MCII mutants; DESI-MS signal of the compound in nematodes (C. elegans): able to detect signals; DESI-MS signal of the compound in nematodes (H. schachtii): able to detect signals
